For assay [1], the system named is ICR male mice. In words: Mouse eye-scratching behavior induced by serotonin. It is filed as in vivo. Conditions: 0.5% test compound, 10 μl dropped into eye five minutes before 1% serotonin; counted for 10 minutes. How it is done: Effect on Mouse Eye-scratching Behavior Induced by Serotonin
After dropping 10 μl of 1% serotonin hydrochloride (hereinafter referred to as serotonin) into right eye of ICR male mice (4 to 6 weeks old), the number of eye-scratcing behavior induced by dropping of serotonin was measured for 10 minutes.
As the test compound, inventive compounds of Example 1, Example 2, Example 3, Example 6, Example 12, Example 29, Example 52, Example 364, Example 381 and Example 383 were used. Five minutes before dropping serotonin, 10 μl of each test compound was dropped. Distilled water as a solvent of the test compound was dropped as a control group.

The target of assay [2] is T1, human nociceptin receptor (Homo sapiens, UniProt P41146).
T1 construct: expressed in transfected cells
T1 sequence (P41146 whole entry): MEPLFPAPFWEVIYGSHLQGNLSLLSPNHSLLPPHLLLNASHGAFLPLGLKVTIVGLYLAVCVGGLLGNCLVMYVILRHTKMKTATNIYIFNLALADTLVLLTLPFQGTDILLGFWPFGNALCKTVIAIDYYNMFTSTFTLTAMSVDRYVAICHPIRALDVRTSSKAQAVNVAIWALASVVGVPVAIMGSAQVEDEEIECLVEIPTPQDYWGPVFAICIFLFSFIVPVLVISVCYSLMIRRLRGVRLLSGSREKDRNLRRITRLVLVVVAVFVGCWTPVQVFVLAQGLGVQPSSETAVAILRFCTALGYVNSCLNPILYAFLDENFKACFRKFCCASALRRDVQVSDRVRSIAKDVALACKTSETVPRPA
In words: Nociceptin receptor binding assay ([3H]nociceptin). Conditions: cell membrane of human nociceptin receptor-expressing cell, 0.08 nM [3H]nociceptin, 25° C. 60 minutes; read-out: Affinity for nociceptin receptors Ki value. Here is the method: Nociceptin Receptor Binding Assay
A cell membrane suspension obtained from a human nociceptin receptor-expressing cell was prepared so that it contained 5 to 10 μg/mL of the membrane protein in a Tris buffer [50 mM Tris-HCl (pH7.8), 5 mM MgCl2, 1 mM EGTA [Ethylene Glycol Bis(β-aminoethylether)-N,N,N′,N′-tetraacetic Acid], 0.1% BSA (Bovine Serum Alubumin)]. To this, [^3H]nociceptin (diluted at the final concentration of 0.08 nM with the Tris buffer) and each test compound was added and the mixture was incubated at 25° C. for 60 minutes. Using a cell harvester and a washing solution [50 mM Tris-HCl (pH7.8), 4° C.], the membrane was recovered onto a GF/B filter which had been pretreated with 0.3% PEI (polyethylenimine), which was then washed further 3 times. The filter was transferred to a vial, to which a scintillator was added, and the radioactivity was measured using a liquid scintillation counter. Noted that a non-specific binding was regarded as a binding in the presence of 10 μM nociceptin, and a specific binding was obtained by subtracting the non-specific binding from the total binding. From a ratio of binding inhibition in the presence of the tested substance, an IC50 value was obtained, and was then used together with the Kd value for [^3H]nociceptin to calculate the Ki value for the tested substance.

For assay [3], the target named is T2, rat μ opioid receptor (Rattus norvegicus, UniProt P33535).
T2 construct: expressed in transfected cells
T2 sequence (P33535 whole entry): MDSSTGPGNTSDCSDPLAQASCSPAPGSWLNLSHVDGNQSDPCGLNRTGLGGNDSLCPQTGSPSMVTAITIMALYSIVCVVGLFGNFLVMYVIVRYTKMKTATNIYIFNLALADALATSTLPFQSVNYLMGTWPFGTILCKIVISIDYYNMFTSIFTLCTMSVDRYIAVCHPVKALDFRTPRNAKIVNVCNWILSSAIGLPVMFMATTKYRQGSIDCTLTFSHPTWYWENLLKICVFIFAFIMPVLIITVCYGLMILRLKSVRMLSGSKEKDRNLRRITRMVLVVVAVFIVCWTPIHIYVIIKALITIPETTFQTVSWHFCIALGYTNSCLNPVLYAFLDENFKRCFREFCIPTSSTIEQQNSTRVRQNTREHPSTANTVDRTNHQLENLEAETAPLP
In words: μ opioid receptor binding assay ([3H]diprenorphine). Conditions: rat μ opioid receptor-expressing cell membrane, 0.5 nM [3H]diprenorphine, 25° C. 60 minutes; read-out: Affinity for μ receptors Ki value. How it is done: μ Opioid Receptor Binding Assay
A rat μ opioid receptor-expressing cell membrane preparation was prepared so that it contained 8.5 μg/mL of the membrane protein in a Tris buffer [50 mM Tris-HCl (pH7.8), 5 mM MgCl2, 1 mM EGTA, 0.1% BSA]. To this, [^3H]diprenorphine (diluted at the final concentration of 0.5 nM with the Tris buffer) and each test compound was added and the mixture was incubated at 25° C. for 60 minutes. Using a cell harvester and a washing solution [50 mM Tris-HCl (pH7.8), 4° C.], the membrane was recovered onto a GF/B filter which had been pretreated with 0.3% PEI, which was then washed further 3 times. The filter was transferred to a vial, to which a scintillator was added, and the radioactivity was measured using a liquid scintillation counter. Noted that a non-specific binding was regarded as a binding in the presence of […], and a specific binding was obtained by subtracting the non-specific binding from the total binding. From a ratio of binding inhibition in the presence of the tested substance, an IC50 value was obtained, and was then used together with the Kd value for [^3H]diprenorphine to calculate the Ki value for the tested substance.

The source of these data is patent US7718663B2, “Quinazoline derivatives and medicaments” (Nippon Shinyaku Co., Ltd., priority 2002, dated 2010).

Counter-ions that a name gives are not always drawn.

What is called Ki is a measure of affinity in units of concentration, obtained from inhibition or displacement.

As to `Cc1ccc2nc(C(=O)NCC(C)C)nc(N[C@H]3CCCC[C@H]3NC(=N)N)c2c1.Cl.Cl` [Example 383, 4-[((1S,2R)-2-{[amino(imino)methyl]amino}cyclohexyl)amino]-N-isobutyl-6-methylquinazoline-2-carboxamide dihydrochloride], the “Average number of scratching behavior” value in assay [1] stood at 2.33.
On the same count and under the same terms, as for `Cc1ccc2nc(C(=O)NCC(C)(C)C)nc(N[C@H]3CCCC[C@H]3NC(=N)N)c2c1.Cl.Cl` [Example 29, 4-[((1S,2R)-2-{[amino(imino)methyl]amino}cyclohexyl)amino]-6-methyl-N-neopentylquinazoline-2-carboxamide dihydrochloride], the figure is 1.67.
`Cc1ccc2nc(NC(=O)c3cc4ccccc4s3)nc(N[C@H]3CCCC[C@H]3NC(=N)N)c2c1.Cl.Cl` [Example 1, N-{4-[((1S,2R)-2-{[amino(imino)methyl]amino}cyclohexyl)amino]-6-methylquinazolin-2-yl}-1-benzothiophene-2-carboxamide dihydrochloride]: in assay [1], the “Average number of scratching behavior” value was 9.57. In addition, the Ki in assay [2] was determined as 0.15 nM; in assay [3], 180 nM.
As to `COc1ccc(C(=O)Nc2nc(N[C@H]3CCCC[C@H]3NC(=N)N)c3cc(C)ccc3n2)c(OC)c1.Cl.Cl` [Example 6, N-{4-[((1S,2R)-2-{[amino(imino)methyl]amino}cyclohexyl)amino]-6-methylquinazolin-2-yl}-2,4-dimethoxybenzamide dihydrochloride], the “Average number of scratching behavior” value in assay [1] was 2.38. Also, the Ki in assay [2] was 0.67 nM; in assay [3], 550 nM.
In the case of `COc1ccc(C(=O)Nc2nc(N[C@H]3CCCC[C@H]3NC(=N)N)c3cc(C)ccc3n2)cc1.Cl.Cl` [Example 12, N-{4-[((1S,2R)-2-{[amino(imino)methyl]amino}cyclohexyl)amino]-6-methylquinazolin-2-yl}-4-methoxybenzamide dihydrochloride], the “Average number of scratching behavior” value in assay [1] is 8.17. For the same molecule, the Ki is 0.57 nM in assay [2] and 680 nM in assay [3].
With `Cc1ccc2nc(C(=O)Nc3ccc(C)c(C)c3)nc(N[C@H]3CCCC[C@H]3NC(=N)N)c2c1.Cl.Cl` [Example 52, 4-[((1S,2R)-2-{[amino(imino)methyl]amino}cyclohexyl)amino]-N-(3,4-dimethylphenyl)-6-methylquinazoline-2-carboxamide dihydrochloride], in assay [1], the “Average number of scratching behavior” value was 4.50.
Consider `Cc1ccc2nc(NC(=O)c3cc4ccccc4o3)nc(N[C@H]3CCCC[C@H]3NC(=N)N)c2c1.Cl.Cl` [Example 3, N-{4-[((1S,2R)-2-{[amino(imino)methyl]amino}cyclohexyl)amino]-6-methylquinazolin-2-yl}-1-benzofuran-2-carboxamide dihydrochloride], for which, in assay [1], the “Average number of scratching behavior” value was determined as 2.33. In addition, the figures for the Ki in assay [2] and in assay [3] were 0.14 nM and 260 nM, respectively.
On to `COc1ccc(NC(=O)c2nc(N[C@H]3CCCC[C@H]3NC(=N)N)c3cc(C)ccc3n2)cc1.Cl.Cl` [Example 2, 4-[((1S,2R)-2-{[amino(imino)methyl]amino}cyclohexyl)amino]-N-(4-methoxyphenyl)-6-methylquinazoline-2-carboxamide dihydrochloride], for which, in assay [1], the “Average number of scratching behavior” value came to 7.25.
Consider `Cc1ccc2nc(C(=O)NC3CCCCCC3)nc(N[C@H]3CCCC[C@H]3NC(=N)N)c2c1.Cl.Cl` [Example 364, 4-[((1S,2R)-2-{[amino(imino)methyl]amino}cyclohexyl)amino]-N-cycloheptyl-6-methylquinazoline-2-carboxamide dihydrochloride], for which the “Average number of scratching behavior” value in assay [1] is recorded as 5.17.
Consider `COc1ccc2cc(C(=O)Nc3nc(N[C@H]4CCCC[C@H]4NC(=N)N)c4cc(C)ccc4n3)ccc2c1` [Example 7, N-{4-[((1S,2R)-2-{[amino(imino)methyl]amino}cyclohexyl)amino]-6-methylquinazolin-2-yl}-6-methoxy-2-naphthamide dihydrochloride], for which the results for the Ki in assay [2] and in assay [3] were 0.65 nM and 570 nM, respectively.
Turning to `Cc1ccc2nc(C(=O)NCCc3ccsc3)nc(N[C@H]3CCCC[C@H]3NC(=N)N)c2c1.Cl.Cl` [Example 381, 4-[((1S,2R)-2-{[amino(imino)methyl]amino}cyclohexyl)amino]-6-methyl-N-[2-(3-thienyl)ethyl]quinazoline-2-carboxamide dihydrochloride], the “Average number of scratching behavior” value in assay [1] was found to be 5.00.
